Data published in patent publication US9718792B2, “Isoxazoline hydroxamic acid derivatives as LpxC inhibitors” (priority 2014, dated 2017).
Values after ≈ are worked out from the molar mass of the structure shown. Where two headings read alike, the source gives them in different places.

Experiments:
[1] = system: P. aeruginosa PAO1; experiment: Susceptibility Testing (MIC, broth microdilution); type: cell-based, Pseudomonas aeruginosa; settings: Pseudomonas aeruginosa, PAO1, 20 h, read-out: PAO1 MIC
Description: Bacterial isolates were cultivated from −70° C. frozen stocks by two consecutive overnight passages at 35° C. in ambient air on 5% blood agar (Remel, Lenexa, Kans.). Quality control and P. aeruginosa ATCC 27853) is from the American Type Culture Collection (ATCC; Rockville, Md.) and PAO1 was received from Dr. K. Poole.
Minimal Inhibitory Concentrations (MICs) were determined by the broth microdilution method in accordance with Clinical and Laboratories Institute (CLSI) guidelines. In brief, fresh bacterial overnight cultures were resuspended in sterile saline, adjusted to a 0.5 McFarland turbidity standard and then diluted […] in cation adjusted Mueller-Hinton Broth II (MHB; Remel BBL) to yield a final inoculum of approximately 5×10^5 colony-forming units (CFU)/mL. Two-fold serial dilutions of compounds were prepared in 100% dimethyl sulfoxide (DMSO) at 100-fold the highest final assay concentration; the resulting dilution series of compounds were diluted 1:10 with sterile water. Ten μl of the drug dilution series in 10% DMSO was transferred to microtiter wells and 90 μl of bacterial suspension was inoculated into the wells. All inoculated microdilution trays were incubated in ambient air at […] for 20 hours. Following incubation, assay plates were read in a microtiter plate reader at 600 nm and visually inspected to confirm the MIC endpoint well with the OD value. The lowest concentration of the compound that prevented visible growth was recorded as the MIC. Performance of the assay was monitored by testing ciprofloxacin against laboratory quality control strains in accordance with guidelines of the CLSI.

[2] = molecular target: P. aeruginosa LpxC (Pseudomonas aeruginosa (strain ATCC 15692 / DSM 22644 / CIP 104116 / JCM 14847 / LMG 12228 / 1C / PRS 101 / PAO1), UniProt P47205); experiment: P. aeruginosa LpxC Inhibition Assay; type: biochemical; settings: 1 nM P. aeruginosa LpxC, 2 μM substrate, LC-MS/MS; read-out: PA LpxC IC50
Text: The P. aeruginosa LpxC protein is produced according to the general method of Hyland et al (Journal of Bacteriology 1997 179, 2029-2037: Cloning, expression and purification of UDP-3-O-acyl-GIcNAc deacetylase from Pseudomonas aeruginosa: a metalloamidase of the lipid A biosynthesis pathway). The LC-MS/MS method for quantitation of LpxC product was developed using an Agilent 1200 Capillary HPLC system coupled to an Applied Biosystems MDS Sciex 4000QTRAP mass spectrometer. Both instruments are controlled using the Applied Biosystems MDS Sciex Analyst software. LpxC reaction product (UDP-3-O—(R-3-hydroxyacyl)-glucosamine) was produced by hydrolysis of LpxC substrate catalyzed by P.a. LpxC and purified using reversed phase chromatography on a Phenomenex Luna C18(2) 4.6×50 mm column. An LpxC product calibration curve was generated to evaluate the sensitivity and dynamic range of the LC-MS/MS method. Briefly, compounds are pre-incubated with 1 nM P. aeruginosa LpxC for 30 min. at room temperature. Reactions are initiated by the addition of 2 μM UDP-3-O—(R-3-hydroxydecanoyl)-GIcNAc. Reactions are conducted in a 384-well plate with a total volume of 50 μL in each well containing 50 mM Sodium phosphate pH 7.5, 0.005% Trition X-100 for 20 min at room temperature. After quenching with 1.8% HOAc (5 μL of a 20% HOAc added to each well), reaction mixtures are analyzed using the LC-MS/MS method and peak areas are transformed into product concentration using a LpxC product calibration curve. Total activity (0% inhibition control) is obtained from reactions with no inhibitors and 100% inhibition control is the background using quenched samples before reaction starts. For IC50 determinations, peak areas are converted to percent inhibition in Microsoft Excel. Percent inhibition values are plotted vs. log compound concentration using XLfit. Data is fit to the four-parameter logistic equation using the non-linear regression algorithm in XLfit to return the IC50 and hill slope values.

[3] = P. aeruginosa PAO1, broth microdilution, 20 hours

| SMILES | MIC [1, 3] | IC50 [2] | MIC [1] |
| --- | --- | --- | --- |
| CC(CC1CC(c2ccc(Br)cc2)=NO1)(C(=O)NO)S(C)(=O)=O (single isomer, unassigned) [Compound 1-B, 3-(3-(4-bromophenyl)-4,5-dihydroisoxazol-5-yl)-N-hydroxy-2-methyl-2-(methylsulfonyl)propanamide] | 1 µg/mL (≈ 2.47 µM) | < 0.5 nM | – |
| CC(CC1CC(c2ccc(-c3ccccc3)cc2)=NO1)(C(=O)NO)S(C)(=O)=O (single isomer, unassigned) [Compound 3-B, 3-(3-([1,1′-biphenyl]-4-yl)-4,5-dihydroisoxazol-5-yl)-N-hydroxy-2-methyl-2-(methylsulfonyl)propanamide] | 0.25 µg/mL (≈ 0.621 µM) | 1 nM | – |
| CC#CCOc1ccc(C2=NOC(CC(C)(C(=O)NO)S(C)(=O)=O)C2)cc1 (single isomer, unassigned) [Compound 4-B, 3-(3-(4-(but-2-yn-1-yloxy)phenyl)-4,5-dihydroisoxazol-5-yl)-N-hydroxy-2-methyl-2-(methylsulfonyl)propanamide] | – | 24 nM | 8 µg/mL (≈ 20.3 µM) |
| CC(CC1CC(c2ccc(C3CC3)cc2)=NO1)(C(=O)NO)S(C)(=O)=O (single isomer, unassigned) [Compound 5-A, 3-(3-(4-cyclopropylphenyl)-4,5-dihydroisoxazol-5-yl)-N-hydroxy-2-methyl-2-(methylsulfonyl)propanamide] | 2 µg/mL (≈ 5.46 µM) | 7 nM | – |
| CCC#Cc1ccc(C2=NOC(CC(C)(C(=O)NO)S(C)(=O)=O)C2)cc1 (single isomer, unassigned) [Compound 8-B, 3-(3-(4-(but-1-yn-1-yl)phenyl)-4,5-dihydroisoxazol-5-yl)-N-hydroxy-2-methyl-2-(methylsulfonyl)propanamide] | 1 µg/mL (≈ 2.64 µM) | 0.5 nM | – |
| CC(CC1CC(c2ccc(C#CCCO)cc2)=NO1)(C(=O)NO)S(C)(=O)=O (single isomer, unassigned) [Compound 10-B, N-hydroxy-3-(3-(4-(4-hydroxybut-1-yn-1-yl)phenyl)-4,5-dihydroisoxazol-5-yl)-2-methyl-2-(methylsulfonyl)propanamide] | 1 µg/mL (≈ 2.54 µM) | < 0.5 nM | – |
| CC#Cc1ccc(C2=NOC(CC(C)(C(=O)NO)S(C)(=O)=O)C2)cc1F (single isomer, unassigned) [Compound 12-B, 3-(3-(3-fluoro-4-(prop-1-yn-1-yl)phenyl)-4,5-dihydroisoxazol-5-yl)-N-hydroxy-2-methyl-2-(methylsulfonyl)propanamide] | 2 µg/mL (≈ 5.23 µM) | 2 nM | – |
| CC(CC1CC(c2ccc(C#CC3CC3)c(F)c2)=NO1)(C(=O)NO)S(C)(=O)=O (single isomer, unassigned) [Compound 13-B, 3-(3-(4-(cyclopropylethynyl)-3-fluorophenyl)-4,5-dihydroisoxazol-5-yl)-N-hydroxy-2-methyl-2-(methylsulfonyl)propanamide] | 1 µg/mL (≈ 2.45 µM) | 1 nM | – |
| CC#Cc1ccc(C2=NOC(CC(C)(C(=O)NO)S(C)(=O)=O)C2)nc1 (single isomer, unassigned) [Compound 14-B, N-hydroxy-2-methyl-2-(methylsulfonyl)-3-(3-(5-(prop-1-yn-1-yl)pyridin-2-yl)-4,5-dihydroisoxazol-5-yl)propanamide] | 8 µg/mL (≈ 21.9 µM) | 17 nM | – |
| CC(CC1CC(c2ccc(C#CC3CC3)cn2)=NO1)(C(=O)NO)S(C)(=O)=O (single isomer, unassigned) [Compound 15-B, 3-(3-(5-(cyclopropylethynyl)pyridin-2-yl)-4,5-dihydroisoxazol-5-yl)-N-hydroxy-2-methyl-2-(methylsulfonyl)propanamide] | 8 µg/mL (≈ 20.4 µM) | 4 nM | – |
| CC#Cc1ccc(C2=NOC(CC(C)(C(=O)NO)S(C)(=O)=O)C2)c(F)c1 (single isomer, unassigned) [Compound 16-B, 3-(3-(2-fluoro-4-(prop-1-yn-1-yl)phenyl)-4,5-dihydroisoxazol-5-yl)-N-hydroxy-2-methyl-2-(methylsulfonyl)propanamide] | 1 µg/mL (≈ 2.61 µM) | 0.6 nM | – |
| CC(CC1CC(c2ccc(C#CC3CC3)cc2F)=NO1)(C(=O)NO)S(C)(=O)=O (single isomer, unassigned) [Compound 17-B, 3-(3-(4-(cyclopropylethynyl)-2-fluorophenyl)-4,5-dihydroisoxazol-5-yl)-N-hydroxy-2-methyl-2-(methylsulfonyl)propanamide] | 0.5 µg/mL (≈ 1.22 µM) | < 0.5 nM | – |
| CC#Cc1ccc(C2=NO[C@@H](C[C@](C)(C(=O)NO)S(C)(=O)=O)C2)cc1 [Compound 2-A, (R)—N-hydroxy-2-methyl-2-(methylsulfonyl)-3-((R)-3-(4-(prop-1-yn-1-yl)phenyl)-4,5-dihydroisoxazol-5-yl)propanamide] | 0.25 µg/mL (≈ 0.686 µM) | 0.8 nM | – |
| C[C@@](C[C@H]1CC(c2ccc(C#CC3CC3)cc2)=NO1)(C(=O)NO)S(C)(=O)=O [Compound 6-A, (R)-3-((R)-3-(4-(cyclopropylethynyl)phenyl)-4,5-dihydroisoxazol-5-yl)-N-hydroxy-2-methyl-2-(methylsulfonyl)propanamide] | 0.25 µg/mL (≈ 0.64 µM) | 0.7 nM | – |
| C[C@@H](O)COc1ccc(-c2ccc(C3=NO[C@@H](C[C@](C)(C(=O)NO)S(C)(=O)=O)C3)cc2)cc1 [Compound 61, (R)—N-hydroxy-3-((R)-3-(4′-((R)-2-hydroxypropoxy)-[1,1′-biphenyl]-4-yl)-4,5-dihydroisoxazol-5-yl)-2-methyl-2-(methylsulfonyl)propanamide] | 0.25 µg/mL (≈ 0.525 µM) | – | – |
| C[C@@](C[C@H]1CC(c2ccc(-c3ccc(C(O)CO)cc3)cc2)=NO1)(C(=O)NO)S(C)(=O)=O (stereo partly drawn) [Compound 72, (2R)-3-((5R)-3-(4′-(1,2-dihydroxyethyl)-[1,1′-biphenyl]-4-yl)-4,5-dihydroisoxazol-5-yl)-N-hydroxy-2-methyl-2-(methylsulfonyl)propanamide] | 0.35 µg/mL (≈ 0.757 µM) | – | – |
| C[C@@](C[C@H]1CC(c2ccc(-c3ccc(C4(CO)CC4)cc3)cc2)=NO1)(C(=O)NO)S(C)(=O)=O [Compound 73, (R)—N-hydroxy-3-((R)-3-(4′-(1-(hydroxymethyl)cyclopropyl)-[1,1′-biphenyl]-4-yl)-4,5-dihydroisoxazol-5-yl)-2-methyl-2-(methylsulfonyl)propanamide] | 0.25 µg/mL (≈ 0.529 µM) | – | – |
| COc1cc(-c2ccc(C3=NO[C@@H](C[C@](C)(C(=O)NO)S(C)(=O)=O)C3)cc2)c(F)cn1 [Compound 80, (R)-3-((R)-3-(4-(5-fluoro-2-methoxypyridin-4-yl)phenyl)-4,5-dihydroisoxazol-5-yl)-N-hydroxy-2-methyl-2-(methylsulfonyl) propanamide] | 1 µg/mL (≈ 2.21 µM) | – | – |
| C[C@@](C[C@H]1CC(c2ccc(C#Cc3ccc([C@@H](O)CO)cc3)cc2)=NO1)(C(=O)NO)S(C)(=O)=O [Compound 97, (R)-3-((R)-3-(4-((4-((R)-1,2-dihydroxyethyl)phenyl)ethynyl)phenyl)-4,5-dihydroisoxazol-5-yl)-N-hydroxy-2-methyl-2-(methylsulfonyl) propanamide] | 0.71 µg/mL (≈ 1.46 µM) | – | – |
| COc1ccc(-c2ccc(C3=NO[C@@H](C[C@](C)(C(=O)NO)S(C)(=O)=O)C3)cc2F)cn1 [Compound 105, (R)-3-((R)-3-(3-fluoro-4-(6-methoxypyridin-3-yl)phenyl)-4,5-dihydroisoxazol-5-yl)-N-hydroxy-2-methyl-2-(methylsulfonyl)propanamide] | – | 1 nM | – |
| C[C@@](C[C@H]1CC(c2ccc(-c3ccc(CO)nc3)c(F)c2)=NO1)(C(=O)NO)S(C)(=O)=O [Compound 109, (R)-3-((R)-3-(3-fluoro-4-(6-(hydroxymethyl)pyridin-3-yl)phenyl)-4,5-dihydroisoxazol-5-yl)-N-hydroxy-2-methyl-2-(methylsulfonyl)propanamide] | – | 5 nM | – |
